One data set deals with Transporter (Rattus norvegicus, UniProt Q63380). Kind of data set: Inhibition of norepinephrine uptake at NET in rat brain synaptosome. The class given is tissue-based.
In data set [1] the target is Sodium-dependent dopamine transporter (Rattus norvegicus, UniProt P23977). Kind of data set: Inhibition of dopamine uptake at cloned DAT in rat brain synaptosome. Type of data set: tissue-based.
Data set [2] addresses Sodium-dependent serotonin transporter (Rattus norvegicus, UniProt P31652). Description: Inhibition of serotonin uptake at SERT in rat brain synaptosome. The class given is tissue-based.
Data set [3] relates to Mus musculus. Description: Antinociceptive activity in formalin-treated mouse model of persistent pain assessed as reduction in number of hind paws flinches at 30 mg/kg. Further details: scale not given: the % may be the effect or the level left. The class given is functional.
The nature of data set [4]: Apparent permeability across human CaCo2 cells. Type of data set: ADME, cell-based. The conditions noted are these: Caco-2.
Data set [5] is described as follows: Efflux ratio in human CaCo2 cells. The class given is ADME, cell-based. The conditions noted are these: Caco-2.
Data set [6] deals with Mus musculus. Description: Antinociceptive activity in formalin-treated mouse model of persistent pain assessed as reduction in licking time at 60 mg/kg. Type of data set: functional.

Calls of active or inactive are those of the source. No cut-off for these calls is given here.

Results on 37 compounds are retold here after ChEMBL document CHEMBL1157485, “Studies on the structure-activity relationship of bicifadine analogs as monoamine transporter inhibitors” (Bioorg Med Chem Lett, 2008).

Chain of Sodium-dependent serotonin transporter (P31652 whole entry): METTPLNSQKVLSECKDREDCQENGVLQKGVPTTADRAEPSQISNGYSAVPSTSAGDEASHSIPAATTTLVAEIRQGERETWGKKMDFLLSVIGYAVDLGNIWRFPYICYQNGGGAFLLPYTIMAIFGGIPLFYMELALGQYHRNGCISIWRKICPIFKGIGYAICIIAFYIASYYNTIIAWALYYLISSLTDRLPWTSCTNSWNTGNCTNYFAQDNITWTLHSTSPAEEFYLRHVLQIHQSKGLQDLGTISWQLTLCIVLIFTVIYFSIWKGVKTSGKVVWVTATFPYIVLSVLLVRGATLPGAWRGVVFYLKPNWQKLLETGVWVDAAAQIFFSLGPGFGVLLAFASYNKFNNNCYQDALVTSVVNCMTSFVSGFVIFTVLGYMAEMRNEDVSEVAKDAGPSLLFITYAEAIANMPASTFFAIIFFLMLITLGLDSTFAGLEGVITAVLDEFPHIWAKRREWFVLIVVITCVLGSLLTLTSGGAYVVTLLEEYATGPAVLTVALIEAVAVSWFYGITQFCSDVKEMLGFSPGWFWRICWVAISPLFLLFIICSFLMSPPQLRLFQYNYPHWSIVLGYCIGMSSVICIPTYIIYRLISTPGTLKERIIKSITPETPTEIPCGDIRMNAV
Chain of Transporter (Q63380 whole entry): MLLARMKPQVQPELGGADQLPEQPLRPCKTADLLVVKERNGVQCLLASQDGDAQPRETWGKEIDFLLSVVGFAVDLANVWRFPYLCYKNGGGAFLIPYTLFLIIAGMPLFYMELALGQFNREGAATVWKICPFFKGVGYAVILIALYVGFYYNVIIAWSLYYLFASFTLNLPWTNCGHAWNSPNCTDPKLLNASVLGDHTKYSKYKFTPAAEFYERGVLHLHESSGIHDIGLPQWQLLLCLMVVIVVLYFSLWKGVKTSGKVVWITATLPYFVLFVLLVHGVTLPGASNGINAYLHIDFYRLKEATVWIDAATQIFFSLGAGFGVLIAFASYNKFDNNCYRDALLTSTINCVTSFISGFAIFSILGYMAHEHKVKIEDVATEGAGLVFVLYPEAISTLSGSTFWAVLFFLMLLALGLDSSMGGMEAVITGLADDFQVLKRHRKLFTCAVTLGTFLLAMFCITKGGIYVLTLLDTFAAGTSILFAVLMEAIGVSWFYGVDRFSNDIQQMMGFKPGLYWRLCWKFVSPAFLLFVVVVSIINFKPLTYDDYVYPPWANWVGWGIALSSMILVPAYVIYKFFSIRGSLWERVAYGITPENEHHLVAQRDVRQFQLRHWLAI
Chain of Sodium-dependent dopamine transporter (P23977 whole entry): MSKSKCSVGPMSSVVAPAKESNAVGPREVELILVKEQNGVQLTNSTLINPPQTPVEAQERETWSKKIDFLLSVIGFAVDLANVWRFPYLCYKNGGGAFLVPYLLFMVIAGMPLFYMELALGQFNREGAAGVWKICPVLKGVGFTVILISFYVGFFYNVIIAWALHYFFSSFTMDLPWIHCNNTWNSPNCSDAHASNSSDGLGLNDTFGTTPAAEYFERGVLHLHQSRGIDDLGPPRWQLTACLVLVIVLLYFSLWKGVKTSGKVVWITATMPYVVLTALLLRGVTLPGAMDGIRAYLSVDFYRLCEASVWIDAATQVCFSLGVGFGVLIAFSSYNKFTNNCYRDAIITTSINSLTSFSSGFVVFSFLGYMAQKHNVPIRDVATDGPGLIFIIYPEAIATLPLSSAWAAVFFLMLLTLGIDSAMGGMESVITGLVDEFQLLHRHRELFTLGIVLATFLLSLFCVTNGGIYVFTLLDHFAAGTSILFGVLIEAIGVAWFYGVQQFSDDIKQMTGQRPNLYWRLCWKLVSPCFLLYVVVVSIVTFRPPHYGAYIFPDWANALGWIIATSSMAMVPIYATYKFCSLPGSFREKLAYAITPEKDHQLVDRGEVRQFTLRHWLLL

For the compound `c1cc2c(cc1C13CNCC1C3)OCO2` (stereo not given), the IC50 is 3500 nM against Transporter, more than 10 µM in data set [1] and 1500 nM in data set [2].

With `Fc1ccc2sc([C@]34CNC[C@H]3C4)cc2c1`, the concentration for half-maximal inhibition (IC50) was found to be 67 nM against Transporter, 0.42 µM in data set [1] and 33 nM in data set [2].

Take `Cc1csc(C23CNCC2C3)c1` (stereo not given): the values for the IC50 (on Transporter; in data set [1]; in data set [2]) were 6800 nM, more than 10 µM and more than 10000 nM, respectively.

For the compound `c1ccc(-c2ccc(C34CNCC3C4)cc2)cc1` (stereo not given), the IC50 is 360 nM on Transporter, 2.3 µM in data set [1] and 160 nM in data set [2].

As for `c1ccc2c(C34CNCC3C4)csc2c1` (stereo not given), the IC50 at Transporter is 220 nM; in data set [1], 0.78 µM; in data set [2], 73 nM.

As to `Fc1ccc([C@]23CNC[C@H]2C3)s1`, the IC50 is 470 nM at Transporter, more than 10 µM in data set [1] and 8100 nM in data set [2].

For the compound `c1ccc(C23CNCC2C3)cc1` (stereo not given), the IC50 on Transporter turned out to be 350 nM; in data set [1], 2.7 µM; in data set [2] it was 5200 nM.

For the compound `c1ccc([C@@H]2[C@H]3CNC[C@]32c2ccccc2)cc1`, the IC50 on Transporter amounted to 120 nM; in data set [1], 8.7 µM; in data set [2], 240 nM.

For `C[C@@H]1[C@H]2CNC[C@@]12c1ccc(Cl)c(Cl)c1` (relative stereo), the half-maximal inhibitory concentration (IC50) was found to be 29 nM against Transporter, 0.4 µM in data set [1] and 190 nM in data set [2].

With `C[C@H]1NC[C@@]2(c3cccs3)C[C@@H]12` (relative stereo), the IC50 is 320 nM against Transporter, 3.4 µM in data set [1] and 7600 nM in data set [2].

Turning to `CC1(C)C2CNCC21c1ccccc1` (stereo not given), the IC50 on Transporter is 7200 nM; in data set [1], more than 10 µM; in data set [2] it was 1800 nM.

Regarding `C[C@H]1[C@H]2CNC[C@]21c1ccc(Cl)c(Cl)c1` (relative stereo), the concentration for half-maximal inhibition (IC50) amounted to 500 nM at Transporter, 0.5 µM in data set [1] and 200 nM in data set [2].

For the compound `c1ccc2sc(C34CNCC3C4)cc2c1` (stereo not given), the half-inhibitory concentration (IC50) came out at 53 nM on Transporter, 0.18 µM in data set [1] and 71 nM in data set [2].

With `Brc1ccc(C23CNCC2C3)s1` (stereo not given), the IC50 at Transporter stood at 190 nM; in data set [1], 2.4 µM; in data set [2], 140 nM.

`Brc1ccc([C@@]23CNC[C@@H]2C3)s1`: the 50% inhibitory concentration (IC50) on Transporter was determined as 340 nM; in data set [1], 8.2 µM; in data set [2] it was 380 nM.

In the case of `c1ccc2oc(C34CNCC3C4)cc2c1` (stereo not given), the IC50 against Transporter was 48 nM; in data set [1], 0.33 µM; in data set [2], 140 nM.

With `FC(F)(F)c1ccc(C23CNCC2C3)s1` (stereo not given), the IC50 was 3100 nM at Transporter, more than 10 µM in data set [1] and 190 nM in data set [2].

With `Clc1ccc([C@@]23CNC[C@@H]2C3)s1`, the IC50 was found to be 590 nM on Transporter, 2.5 µM in data set [1] and 1300 nM in data set [2].

In the case of `c1cc([C@@]23CNC[C@@H]2C3)cs1`, the half-maximal inhibitory concentration (IC50) on Transporter stood at 300 nM; in data set [1] it was 8.2 µM; in data set [2] it was 6800 nM.

With `c1cnc2ccc(C34CNCC3C4)cc2c1` (stereo not given), the IC50 on Transporter was found to be 1400 nM; in data set [1], 3.9 µM; in data set [2], 640 nM.

For the compound `c1cc2c(cc1[C@@]13CNC[C@@H]1C3)CCO2`, the IC50 against Transporter turned out to be 4800 nM; in data set [1] it was 9.1 µM; in data set [2] it was 610 nM.

`c1csc([C@@]23CNC[C@@H]2C3)c1`: the values for the IC50 (on Transporter; in data set [1]; in data set [2]) were 150 nM, 6.2 µM and 4900 nM, respectively.

As for `O=C1NCC2CC12c1cccs1` (stereo not given), the IC50 on Transporter was more than 10000 nM; in data set [1], more than 10 µM; in data set [2], more than 10000 nM.

As to `Clc1ccc([C@]23CNC[C@H]2C3)s1`, the IC50 at Transporter is 77 nM; in data set [1] it was 1.5 µM; in data set [2], 81 nM.

As for `Clc1ccc([C@@]23CNC[C@@H]2[C@H]3c2ccccc2)cc1Cl` (relative stereo), the figures for the IC50 (against Transporter; in data set [1]; in data set [2]) were 34 nM, 0.36 µM and 350 nM, respectively.

As for `c1csc(C23CNCC2C3)c1` (stereo not given), the 50% inhibitory concentration (IC50) on Transporter stood at 130 nM; in data set [1], 7.5 µM; in data set [2], 4500 nM.

On to `C[C@H]1NC[C@@H]2C[C@@]21c1cccs1` (relative stereo), for which the IC50 against Transporter is 150 nM; in data set [1], 8.9 µM; in data set [2] it was 5800 nM.

In the case of `Clc1cc(Cl)c(C23CNCC2C3)s1` (stereo not given), the half-inhibitory concentration (IC50) against Transporter was 5300 nM; in data set [1], more than 10 µM; in data set [2], 4200 nM.

Consider `c1csc([C@]23CNC[C@H]2C3)c1`, for which the IC50 at Transporter came to 92 nM; in data set [1], 2.4 µM; in data set [2], 1900 nM. Further, the Activity with Mus musculus [3] came to 40%. In addition, in data set [4], the apparent permeability coefficient (Papp) was 17.6 ×10⁻⁶ cm/s. The efflux ratio in data set [5] was determined as 0.7.

Regarding `Clc1ccc(C23CNCC2C3)s1` (stereo not given), the IC50 against Transporter was 130 nM; in data set [1], 3.3 µM; in data set [2] it was 190 nM.

For `C[C@@H]1NC[C@@]2(c3cccs3)C[C@@H]12` (relative stereo), the IC50 was found to be 560 nM at Transporter, 9.5 µM in data set [1] and 6000 nM in data set [2].

In the case of `FC12CNCC1(c1ccccc1)C2` (stereo not given), the IC50 is 1800 nM against Transporter, more than 10 µM in data set [1] and 2900 nM in data set [2].

In the case of `c1cc2c(cc1[C@@]13CNC[C@@H]1C3)CCC2`, the IC50 at Transporter was 2000 nM; in data set [1] it was more than 10 µM; in data set [2], 97 nM.

In the case of `CN1CC2CC2(c2cccs2)C1` (stereo not given), the figures for the IC50 (against Transporter; in data set [1]; in data set [2]) were 1600 nM, more than 10 µM and 6300 nM, respectively.

Regarding `CCOc1ccccc1O[C@@H](c1ccccc1)[C@@H]1CNCCO1`, the result with Mus musculus [6] was inactive.

For `Cc1ccc(C23CNCC2C3)cc1` (stereo not given) [BICIFADINE], the Activity with Mus musculus [6] turned out to be 89%.

`c1ccc2cc(C34CNCC3C4)ccc2c1` (stereo not given): the IC50 against Transporter came out at 36 nM; in data set [1] it was 0.19 µM; in data set [2], 50 nM.
